Experimental data published in patent US20050049220A1, “Dosing regimen for Flaviviridae therapy” (priority 2003, published 2005).
Counter-ions that a name gives are not always drawn. Like-named read-outs stand apart in the source and are kept apart here.

What was measured:
HCV replicon = HCV replicon assay: HCV RNA by Q-RT-PCR, 4 days exposure; assay type: cell-based, hepatitis C virus (HCV); details: for log reduction at 10 µM: read-out: Corrected HCV RNA log10 reduction at 10 μM
Description: Antiviral screening assays can be done in the same media without G418 as follows: in order to keep cells in logarithmic growth phase, seed cells in a 96-well plate at low density, for example 1000 cells per well. Add the test compound immediate after seeding the cells and incubate for a period of 3 to 7 days at 37° C. in an incubator. Media is then removed, and the cells are prepared for total nucleic acid extraction (including replicon RNA and host RNA). Replicon RNA can then be amplified in a Q-RT-PCR protocol, and quantified accordingly. […] This value is called DeltaCt (ΔCt or DCt).
This value is called DeltaCt (ΔCt or dCt).

Huh-7 cells = assay: Cellular rRNA levels / cytotoxicity in HCV replicon cells; details: for log10 RNA reduction at 100 μM, rRNA: 4 days, HCV replicon transfected Huh-7 cells
Text: In a typical setting, a compound might reduce both the host RNA polymerase activity and the replicon-encoded polymerase activity. Therefore, quantification of rRNA (or any other host RNA polymerase I product) or beta-actin mRNA (or any other host RNA polymerase II) and comparison with RNA levels of the no-drug control is a relative measurement of the effect of the test compound on host RNA polymerases.
With the availability of both the HCV ΔCt data and the rRNA ΔCt, a specificity parameter can be introduced. This parameter is obtained by subtracting both ΔCt values from each other.
IFN-α-2a and ribavirin were tested over a range of concentrations for their ability to reduce the HCV RNA levels in exponentially growing replicon cells after 4 days of exposure as described (Stuyver, L. et al. “A ribonucleoside analogue that blocks the replication of bovine viral diarrhea and hepatitis C viruses in culture” Antimicrob. Agents Chemother. 2003, 47, 244-254).
Gemcitabine was dissolved in DMSO and added to the culture media of a cellular model system of Huh7 cells harboring self-replicating HCV RNA, at final concentrations ranging from […]. In such experiments, one way to express the antiviral effectiveness of a compound is to subtract the threshold reverse-transcriptase polymerase chain reactions (RT-PCR) cycle of the test compound with the average threshold RT-PCR cycle of the negative control. This value is called DeltaCt (ΔCt or dCt). With the availability of both the HCV ΔCt data and the rRNA ΔCt, a specificity parameter can be introduced. This parameter is obtained by subtracting both ΔCt values from each other.

[1] = tested on: HCV replicon cells (Huh-7); assay: 7-day cell growth dynamics, trypan-blue cell count; details: range of testing 50-1,000 nM; 7-day dynamics
Description: FIG. 2 is a graphical depiction of the dynamics of cell growth and HCV RNA levels after exposure to control anti-HCV compounds. HCV replicon cells were seeded at approximately 10^4 cells per well in a 24-well plate. Over a 7-day period, cells were counted daily, and rRNA and HCV RNA were quantified by Q-RT-PCR. A: IFN-α-2a at 100 IU/ml; B: ribavirin at 100 μM. ●: cell proliferation in absence of compound; ◯: cell proliferation in presence of compound; ▾: HCV RNA levels in untreated cells; ∇: HCV RNA levels in the presence of compound. The curves shown are averages of 3 independent experiments.
Therefore, experiments were conducted to monitor HCV RNA levels and the cell growth dynamics over a 7-day period.
The dynamics of HCV replicon cells exposed to these inhibitors (at their EC90 value) was monitored over a 7-day period.

HCV replicon cells = assay: Prevention studies with natural ribo- or 2′-deoxy nucleosides; assay type: cell-based, human; details: test compound at 96 h EC90 value; nucleosides at 50 μM
HCV = assay: Single treatment of an HCV-infected patient, viral load; assay type: in vivo, human; details: for tolerance / adverse events: patient with multifocal HCC, cirrhosis, ischaemic hepatitis
Description: The tolerance was acceptable, and thus the next day the patient was given a second dosage of approximately 700 mg of gemcitabine. Before the second dosage the baseline viral load was 6.49 log copies/mL.

[2] = 100 μM, 4 days, HCV replicon transfected Huh-7 cells
[3] = 96 h incubation, read-out: Corrected HCV RNA EC90
[4] = Hepatitis C virus, 96 h, read-out: Corrected HCV RNA log10 reduction at 100 μM
[5] = Hepatitis C virus, 96 h, 100 μM, 4 days, HCV replicon transfected Huh-7 cells, read-out: log10 RNA reduction at 100 μM, HCV
[6] = Hepatitis C virus, 96 h incubation, read-out: Corrected HCV RNA EC90
[7] = Hepatitis C virus, 96 h, 10 μM, corrected for rRNA
[8] = Hepatitis C virus, 96 h, 100 μM, corrected for rRNA, read-out: Corrected HCV RNA log10 reduction at 100 μM
[9] = Hepatitis C virus, 96 h, read-out: Corrected HCV RNA EC90
[10] = Hepatitis C virus, Huh-7, 96 h, read-out: log10 RNA reduction at 100 μM, HCV
[11] = second dosage approximately 700 mg

SMILES	log10 RNA reduction at 100 μM, rRNA (Huh-7 cells)	log reduction at 10 µM (HCV replicon; Hepatitis C virus, 96 h)	log reduction at 100 µM (HCV replicon; [4])	log reduction at 100 µM (HCV replicon; [5])	EC90 (HCV replicon; [6])	also measured
O=c1cnn([C@@H]2O[C@H](CO)[C@@H](O)[C@H]2O)c(=S)[nH]1 [2-thio-6-azauridine]	−0.02 ± 0.12 log10					Corrected HCV RNA log10 reduction at 10 μM (HCV replicon; 10 μM, corrected for rRNA): 0.12 ± 0.10 log10; log10 RNA reduction at 100 μM, HCV (HCV replicon; [2]): 0.16 ± 0.04 log10; Corrected HCV RNA log10 reduction at 100 μM (HCV replicon; 100 μM, corrected for rRNA): 0.19 ± 0.09 log10; EC90 (HCV replicon; [3]): > 100 µM
O=c1[nH]c(=O)n([C@H]2C[C@H](O)[C@@H](CO)O2)cc1F [2′-deoxy-5-fluorouridine]	0.73 ± 0.35 log10	0.23 ± 0.05	0.04 ± 0.25	0.76 ± 0.06	> 100 µM	
O=c1cnn([C@@H]2O[C@H](CO)[C@@H](O)[C@H]2O)c(=O)[nH]1 [6-azauridine]	0.61 ± 0.18 log10			0.25 ± 0.09	> 100 µM	log reduction at 10 µM (HCV replicon; [7]): 0.12 ± 0.05; log reduction at 100 µM (HCV replicon; [8]): -0.36 ± 0.16
Cc1c(-c2ccc(-c3ccccc3F)cc2)nc2ccc(F)cc2c1C(=O)O [Brequinar (NSC-368390), Brequinar]	0.29 ± 0.01 log10			-0.05 ± 0.05	> 100 µM	log reduction at 10 µM (HCV replicon; [7]): -0.17 ± 0.09; log reduction at 100 µM (HCV replicon; [8]): -0.34 ± 0.04
COc1c(C)c2c(c(O)c1CCOP(=O)(O)CP(=O)(O)OC[C@H]1O[C@@H](n3cnc4c(N)ncnc43)[C@H](O)[C@@H]1O)C(=O)OC2 [C2-MAD]	1.00 ± 0.15 log10					Corrected HCV RNA log10 reduction at 10 μM (HCV replicon; 10 μM, corrected for rRNA): 0.36 ± 0.21 log10; log10 RNA reduction at 100 μM, HCV (HCV replicon; [2]): 1.09 ± 0.21 log10; Corrected HCV RNA log10 reduction at 100 μM (HCV replicon; 100 μM, corrected for rRNA): 0.08 ± 0.24 log10; EC90 (HCV replicon; [3]): > 100 µM
Nc1ccn([C@@H]2C=C(CO)[C@@H](O)[C@H]2O)c(=O)n1 [CPE-C, cyclopentenylcytosine]	1.21 ± 0.16 log10			2.47 ± 0.33		EC90 (HCV replicon; [3]): 2.5 µM; log reduction at 10 µM (HCV replicon; [7]): 1.43 ± 0.01; log reduction at 100 µM (HCV replicon; [8]): 1.26 ± 0.51
CC(=O)N(O)CCCCCNC(=O)CCC(=O)N(O)CCCCCNC(=O)CCC(=O)N(O)CCCCCN [Deferoxamine]	0.92 ± 0.08 log10				> 100 µM	Corrected HCV RNA log10 reduction at 10 μM (HCV replicon; 10 μM, corrected for rRNA): 0.17 ± 0.11 log10; log reduction at 100 µM (HCV replicon; [8]): 0.08 ± 0.03
O=C1C(O)=C(CC=C(Cl)Cl)C(=O)c2ccccc21 [Dichloroallyl lawsone (NSC-126771), Dichloroallyl lawsone]	2.13 ± 0.15 log10					Corrected HCV RNA log10 reduction at 10 μM (HCV replicon; 10 μM, corrected for rRNA): −0.52 ± 0.01 log10; log10 RNA reduction at 100 μM, HCV (HCV replicon; [2]): 1.27 ± 0.02 log10; Corrected HCV RNA log10 reduction at 100 μM (HCV replicon; 100 μM, corrected for rRNA): −0.86 ± 0.17 log10; EC90 (HCV replicon; [3]): > 100 µM
Nc1n[nH]c(N)n1 [Guanazole]	0.07 ± 0.03 log10	0.05 ± 0.08	0.32 ± 0.08			EC90 (HCV replicon; [9]): > 100 µM; log reduction at 100 µM (HCV replicon; [10]): 0.25 ± 0.11
NC(=O)NO [Hydroxyurea]	0.25 ± 0.20 log10		-0.08 ± 0.16	0.17 ± 0.08	> 100 µM	log reduction at 10 µM (HCV replicon; [7]): 0.06 ± 0.04
CN(Cc1cnc2nc(N)nc(N)c2n1)c1ccc(C(=O)N[C@@H](CCC(=O)O)C(=O)O)cc1 [Methotrexate]	0.07 ± 0.10 log10	0.15 ± 0.01	0.11 ± 0.09	0.18 ± 0.01	> 100 µM	
NC(=O)c1ncn([C@@H]2O[C@H](CO)[C@@H](O)[C@H]2O)c1O [Mizoribine]	0.21 ± 0.50 log10	-0.14 ± 0.12	0.08 ± 0.82	0.29 ± 0.74	> 100 µM	
COc1c(C)c2c(c(O)c1C/C=C(\C)CCC(=O)O)C(=O)OC2 [Mycophenolic acid]	1.09 ± 0.28 log10	0.22 ± 0.01	0.07 ± 0.47	1.15 ± 0.43	> 100 µM	
O=C(O)C[C@H](NC(=O)CP(=O)(O)O)C(=O)O [PALA, N-(Phosphonoacetyl)-L-aspartate]	0.48 ± 0.02 log10	1.18 ± 0.11	1.3 ± 0.05	1.77 ± 0.02		EC90 (HCV replicon; [9]): 7.6 µM
Nc1ccn(C2OC(CO)C(O)C2=CF)c(=O)n1 (centres unmarked) [Tezacytabine]	1.78 ± 0.69 log10					Corrected HCV RNA log10 reduction at 10 μM (HCV replicon; 10 μM, corrected for rRNA): 0.63 ± 0.07 log10; log10 RNA reduction at 100 μM, HCV (HCV replicon; [2]): 1.59 ± 0.08 log10; Corrected HCV RNA log10 reduction at 100 μM (HCV replicon; 100 μM, corrected for rRNA): −0.19 ± 0.49 log10; EC90 (HCV replicon; [3]): > 100 µM
NC(=O)c1csc([C@@H]2O[C@H](CO)[C@@H](O)[C@H]2O)n1 [Tiazofurin]	0.99 ± 0.35 log10	0.04 ± 0.1	-0.13 ± 0.37			EC90 (HCV replicon; [9]): > 100 µM; log reduction at 100 µM (HCV replicon; [10]): 0.86 ± 0.27
Nc1ccn([C@@H]2O[C@H](CO)[C@@H](O)C2(F)F)c(=O)n1 [dFdC, 2′-deoxy-2′,2′-difluorocytidine]		1.32 ± 0.08				Corrected HCV RNA EC90 (HCV replicon; 96 h incubation): Too toxic; antiviral activity on HCV replicon RNA (HCV replicon; HCV replicon cells): most potent inhibitor of both replicon RNA and cells; EC90 (HCV replicon; Hepatitis C virus, Huh-7, 96 h, 4-days incubation, Huh7 cells harboring self-replicating HCV RNA, read-out: EC90, reduction of replicon HCV RNA): ~0.07 µM; EC50 (HCV replicon; Hepatitis C virus, Huh-7, Huh7 cells harboring self-replicating HCV RNA, read-out: EC50, reduction of HCV RNA levels): 0.04 µM; log10 RNA reduction, HCV (HCV replicon; dFdC tested initially at 50 μM): 1.87 ± 0.16 log10; Corrected HCV RNA log10 reduction (HCV replicon; dFdC tested initially at 50 μM, corrected for rRNA): 1.29 ± 0.11 log10; IC50 (Huh-7 cells; Homo sapiens, Huh-7): 0.24 µM; log10 RNA reduction, rRNA (Huh-7 cells; dFdC tested initially at 50 μM): 0.59 ± 0.05 log10; non-cytotoxic concentration [1]: could not be found; prevention of antiviral and cytostatic effects by natural nucleosides (HCV replicon cells): prevented by 2′-deoxycytidine; tolerance / adverse events (HCV; listed as gemcitabine): heart problems; baseline viral load before the second dosage (HCV; patient, day after 1200 mg gemcitabine HCl with oxaliplatine): 6.49 log copies/mL; HCV RNA eight hours after the second dosage (HCV; [11]): 4.04 log copies/mL; drop in HCV RNA in eight hours (HCV; [11]): ~2.5 log
O=c1ccn(C2OC(CO)C(O)C2(F)F)c(=O)[nH]1 (centres unmarked) [dFdU]						dCT HCV (HCV replicon; 7.0 μM): 6.39; ddCt (HCV replicon; 7.0 μM, HCV dCt minus rRNA dCt): 4.42; dCt rRNA (Huh-7 cells; 7.0 μM): 1.96
Nc1ccn([C@@H]2O[C@H](CO)[C@@H](O)C2(F)F)c(=O)n1 [gemcitabine HCl]						tolerance / adverse events (HCV; HCl): acceptable
